In US10768174B2, “Attachment of proteins to interfaces for use in nonlinear optical detection” (Bluelight Therapeutics, Inc., priority 2014, dated 2020):

Assays:
[1] = biological target: T1, maltose binding protein (MBP) (Escherichia coli, UniProt P0AEX9); experiment: SHG detection of ligand-induced conformational change of lysine-labeled MBP tethered to Ni-NTA supported lipid bilayer; parameters: purchased AtGen Co, Ltd (Seongnam-si, Gyeonggi-do, South Korea); settings: for change in SHG intensity (M): 2 mM maltose, MBP labeled at pH 7.5, N=3; for change in SHG signal (M): 2 mM, MBP labeled at pH 8.3, N=4
Procedure: We also performed a similar set of experiments with MBP. First, we monitored the SHG intensity of MBP labeled at pH 8.3 upon addition of buffer, lactose, or maltose. […] Because the addition of both 2 mM lactose and buffer alone result in negligible changes in SHG intensity, the change in SHG intensity upon maltose addition is specific to ligand-induced conformational change upon binding.
The converse trend, preference at K88 over K15, was observed when the experimental conditions changed to pH 8.3. […] Based on inspection of the crystal structures, we hypothesized that when MBP is primarily labeled at K15 rather than K88, this could alter the directionality of SHG signal change upon ligand addition relative to the reverse case, since K15 and K88 appear to rotate towards and away from the surface normal, respectively, assuming the protein is oriented with its N-terminus facing the bilayer. […] Consistent with previous results, the addition of lactose and buffer alone had no effect.
J Am Chem Soc 136(29):10349-10360). […] (under standard kinetic condition described in ref [28].
Excess protein was removed by additional washes after incubation.
(§1) SHG signal was monitored over several minutes after injection.

His-tag-Ni-NTA linkage = experiment: Specificity of protein attachment to bilayer: incubation with or without imidazole, SHG signal; type: binding; settings: imidazole 350 mM (FIG. 6A legend) / 300 mM (methods)
Procedure: We began by characterizing the attachment of the proteins to our SLB surface. The SLB surface we employed has integrated immobilized metal affinity (Ni-NTA) chemistry to specifically tether the proteins to the bilayer in an oriented manner via a poly-histidine tag at the N- or C-terminus. To test the specificity of this interaction, each protein was incubated on the bilayer in the presence or absence of imidazole, a competitive inhibitor of His-tagged protein binding. […] When labeled protein is incubated in the presence of imidazole, SHG signal levels are reduced to less than 10% of the original signal or to background levels, i.e. to those of bilayer alone.

calmodulin (CaM) = biological target: T2, calmodulin (CaM) (Homo sapiens, UniProt P0DP23); experiment: SHG detection of ligand-induced conformational change of labeled calmodulin tethered to Ni-NTA supported lipid bilayer; type: binding; settings: buffer containing 1 mM CaCl2 injected; N=3
T2 construct: purchased EMD Millipore (Billerica, Mass.)
From the text: MBP and CaM Proteins: To explore the ability of our SHG bilayer system to detect and measure conformational changes of a protein, we began by testing the system on CaM and MBP, two proteins previously studied by SHG [32, 33]. First, we tethered labeled CaM to the SLB surface and monitored the change in SHG intensity upon addition of the calmodulin binding peptide (CBP) in the presence or absence of calcium-containing buffers. […] When calcium is omitted from the buffer, addition of the peptide alone results in M=3.1%, (N=3, SEM±1.6) change in SHG intensity, essentially no change (FIG. 7B). […] Next, we evaluated the effect of adding calcium ions. […] Peptide was then added directly to these samples two minutes after calcium addition, producing a positive signal change of M=8.7% (N=3, SEM±0.4). As the magnitude of the SHG signal is proportional to the net, average orientation of the dye label relative to the surface normal, the different magnitudes of SHG signal change upon binding CBP and calcium to unbound CaM confirm that these ligands bind to specific and different conformations of the protein. SHG signal changes can occur in either the positive or negative direction relative to baseline depending on whether the net, average orientation of the probe moves closer to or further away from the surface normal, respectively. […]
as §1

[2] = biological target: T1, maltose binding protein (MBP); experiment: Example 2 SHG kinetic reads of PyMPO-labeled His-tagged MBP tethered on 10% Ni-NTA bilayer; settings: 10 uL injection of 2 mM solution into 10 uL well; 10% Ni-NTA tethered MBP
Procedure: Protein labeling protocol: Stock His-tagged maltose binding protein (MBP) (1 mL at nominal 0.5 mg/mL) was buffer exchanged from 20 mM Tris-HCL pH 8.0, 0.1 M NaCl, 10% Glycerol into 0.1 M Na phosphate, pH 7.5 by passing over two of the 2 mL Zeba™ Spin Desalting Columns (Thermo Scientific) equilibrated per the manufacturer's instructions. Concentration and volume of the buffer exchanged material were determined by measuring absorbance on a NanoDrop Spectrophotometer (Thermo Scientific). PyMPO-NHS was weighed out and dissolved to 2 mM in dry DMSO. PyMPO-NHS was added to the buffer exchanged MBP at 3.5:1 mole equivalents. The conjugation reaction was allowed to proceed in the dark at room temp, stirring gently, for 15 minutes. The reaction was terminated by buffer exchange back into the MBP storage buffer (20 mM Tris-HCL pH 8.0, 0.1 M NaCl, 10% Glycerol) over a fresh pair of Zeba™ Spin Desalting Columns. The resultant conjugate was centrifuged at 16K×g for 20 minutes at 4° C., and volume, concentration and degree of labeling was determined for the supernatant by measuring absorbance at 280 nm and 410 nm on the NanoDrop. […]
Scanning: The entire slide was line scanned to gather SHG data for determining the relative tethering efficiency of 3% vs 10% Ni-NTA surfaces. Well positions for 10% Ni-NTA tethered MBP were recorded and used to set up the MBP kinetic reads (3 wells total). […]

[3] = biological target: monomeric forms of avidin or streptavidin; settings: read-out: biotin-binding affinity of monomeric forms of avidin or streptavidin; cited from earlier work

## OC[C@H]1O[C@@H](O[C@H]2[C@H](O)[C@@H](O)C(O)O[C@@H]2CO)[C@H](O)[C@@H](O)[C@H]1O (some centres unmarked) [lactose]
[1]
  change in SHG intensity (M): no effect
  change in SHG signal (M): 0.44%

## c1c[nH]cn1 [imidazole]
His-tag-Ni-NTA linkage
  SHG signal level of labeled protein incubated in the presence of imidazole: less than 10 % of the original signal

## [Ca+2].[Cl-].[Cl-] [CaCl2]
Calmodulin (CaM)
  change in SHG signal (M): −12.6%

## OC[C@H]1O[C@H](O[C@H]2[C@H](O)[C@@H](O)[C@H](O)O[C@@H]2CO)[C@H](O)[C@@H](O)[C@@H]1O [maltose]
[1]
  change in SHG intensity (M): 27.4%
  change in SHG signal (M): −33.8%
[2]
  SHG response (induced conformational change) of MBP: only responded to addition of maltose

## O=C(O)CCCC[C@@H]1SC[C@@H]2NC(=O)N[C@@H]21 [biotin]
[3]
  Kd: ~10 nM
